Consider five molecules from article PMC12549532, “The complete λ-carrageenan depolymerization cascade from a marine Pseudoalteromonad revealed by structural analysis of the enzymes” (The Journal of Biological Chemistry, 2025).

The target of experiment [1] is T1, GH110A (Pseudoalteromonas distincta, UniProt Z9OJ40UL04).
T1 construct: without predicted signal peptide; pET28a N-terminal His-tag, cut with thrombin for crystals; E. coli host
T1 sequence (Z9OJ40UL04 24-600): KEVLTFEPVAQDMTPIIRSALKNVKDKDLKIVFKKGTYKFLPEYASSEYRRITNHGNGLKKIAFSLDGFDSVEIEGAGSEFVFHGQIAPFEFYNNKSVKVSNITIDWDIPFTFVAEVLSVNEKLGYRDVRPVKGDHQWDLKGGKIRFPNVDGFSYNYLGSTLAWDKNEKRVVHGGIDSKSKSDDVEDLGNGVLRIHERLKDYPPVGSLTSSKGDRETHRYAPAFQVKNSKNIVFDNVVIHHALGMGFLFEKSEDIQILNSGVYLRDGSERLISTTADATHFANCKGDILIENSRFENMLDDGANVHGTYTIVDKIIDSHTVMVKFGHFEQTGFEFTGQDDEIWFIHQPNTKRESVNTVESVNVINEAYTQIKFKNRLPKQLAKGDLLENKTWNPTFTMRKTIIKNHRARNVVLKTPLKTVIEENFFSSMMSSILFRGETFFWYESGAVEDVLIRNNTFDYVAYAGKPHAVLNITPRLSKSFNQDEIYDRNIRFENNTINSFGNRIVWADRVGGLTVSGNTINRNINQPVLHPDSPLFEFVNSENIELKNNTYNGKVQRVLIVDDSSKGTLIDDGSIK
Nature of the experiment: X-ray crystal structure, soaked. Particulars: -1 subsite. It counts as binding.

Experiment [2] deals with T2, GH2 (Pseudoalteromonas distincta, UniProt Z9L5V2N5Y9).
T2 sequence (Z9L5V2N5Y9 24-826): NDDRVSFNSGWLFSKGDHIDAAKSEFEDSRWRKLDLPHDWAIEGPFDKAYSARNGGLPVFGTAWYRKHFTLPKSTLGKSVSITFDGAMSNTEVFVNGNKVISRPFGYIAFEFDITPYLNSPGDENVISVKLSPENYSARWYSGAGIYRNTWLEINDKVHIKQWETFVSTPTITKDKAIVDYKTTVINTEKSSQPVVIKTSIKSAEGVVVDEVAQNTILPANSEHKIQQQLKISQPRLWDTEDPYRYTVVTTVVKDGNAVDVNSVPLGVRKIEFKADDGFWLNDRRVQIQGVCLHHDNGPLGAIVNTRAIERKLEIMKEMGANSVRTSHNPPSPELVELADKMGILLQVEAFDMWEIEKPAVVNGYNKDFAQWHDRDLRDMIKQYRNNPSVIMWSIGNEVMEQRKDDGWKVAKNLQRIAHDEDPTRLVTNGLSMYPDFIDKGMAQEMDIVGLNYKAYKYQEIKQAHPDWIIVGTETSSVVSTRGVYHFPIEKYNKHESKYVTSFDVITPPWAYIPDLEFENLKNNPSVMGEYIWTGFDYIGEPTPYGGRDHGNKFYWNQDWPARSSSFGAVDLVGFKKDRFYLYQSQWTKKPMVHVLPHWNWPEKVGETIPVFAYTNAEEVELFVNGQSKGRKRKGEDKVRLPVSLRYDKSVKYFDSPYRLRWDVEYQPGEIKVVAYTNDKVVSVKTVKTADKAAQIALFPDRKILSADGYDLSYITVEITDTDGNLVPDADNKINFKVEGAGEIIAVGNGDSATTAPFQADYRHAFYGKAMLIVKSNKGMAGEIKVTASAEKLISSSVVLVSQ
Nature of the experiment: X-ray crystal structure, soaked. Details: without predicted signal peptide; pET28a N-terminal His-tag, cut with thrombin for crystals; E. coli Tuner (DE3). The conditions noted are these: inhibitor in -1 subsite, capping loop closed. Type of experiment: binding.

In experiment [3] the target is T2, GH2. Nature of the experiment: chromogenic activity assay (data not shown).
In experiment [4] the target is T3, GH110A (Pseudoalteromonas distincta, UniProt Z9OJ40UL04, D324N, form not given).
T3 construct: without predicted signal peptide; pET28a N-terminal His-tag, cut with thrombin for crystals; E. coli host
T3 sequence (Z9OJ40UL04 24-600 D324N): T1 sequence (Z9OJ40UL04 24-600) with D301N
Nature of the experiment: X-ray crystal structure, soaked. Type of experiment: binding. Particulars: inactive mutant; trisaccharide G6S in -1 subsite modelled, partial occupancy in +1 and +2.

The target of experiment [5] is T4, S1_8B (Pseudoalteromonas distincta, UniProt Z9FD83UQX5, S94C, form not given).
T4 construct: without predicted signal peptide; pET28a N-terminal His-tag, cut with thrombin for crystals; E. coli BL21 (DE3) Star
T4 sequence (Z9FD83UQX5 24-541 S94C): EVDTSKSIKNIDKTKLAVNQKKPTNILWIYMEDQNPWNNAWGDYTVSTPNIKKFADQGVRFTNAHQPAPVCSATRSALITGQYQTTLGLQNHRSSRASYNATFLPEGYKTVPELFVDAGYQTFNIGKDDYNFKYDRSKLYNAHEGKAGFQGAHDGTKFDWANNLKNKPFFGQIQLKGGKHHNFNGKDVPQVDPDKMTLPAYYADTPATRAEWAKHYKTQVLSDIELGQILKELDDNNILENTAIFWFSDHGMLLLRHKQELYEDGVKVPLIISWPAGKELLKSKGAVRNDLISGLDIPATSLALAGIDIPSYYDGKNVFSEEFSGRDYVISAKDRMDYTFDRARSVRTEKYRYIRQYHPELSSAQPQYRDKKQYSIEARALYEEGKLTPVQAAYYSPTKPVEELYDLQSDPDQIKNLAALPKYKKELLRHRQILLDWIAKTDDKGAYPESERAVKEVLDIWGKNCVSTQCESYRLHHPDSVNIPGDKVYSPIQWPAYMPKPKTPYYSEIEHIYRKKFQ
Nature of the experiment: preparative desulfation, product seen in crystal complexes. The conditions noted are these: 2-O-desulfation of the non-reducing end. Type of experiment: biochemical.

Experiment [6] concerns the target T5, S1_8B (Pseudoalteromonas distincta, UniProt Z9FD83UQX5).
T5 construct: without predicted signal peptide; pET28a N-terminal His-tag, cut with thrombin for crystals; E. coli BL21 (DE3) Star
T5 sequence (Z9FD83UQX5 24-541): T4 sequence (Z9FD83UQX5 24-541 S94C) with C71S
Nature of the experiment: X-ray crystal structure, soaked. Particulars: inactive mutant (printed C84S); 2.1 Å; modelled as fully sulfated Hex4S6. Type of experiment: binding.

Numbering of substitutions follows the chain as printed.

Consider `O=S(=O)(O)OC[C@H]1OC(O)[C@H](O)[C@@H](O)[C@H]1O` (stereo partly drawn) [G6S], for which the “X-ray crystal structure, soaked” value on GH110A [1] is “We determined the structure of GH110A in complex with the monosaccharide G6S”.
With `OC[C@H]1CNC[C@@H](O)[C@H]1O` [GIF, galactoisofagomine], the “X-ray crystal structure, soaked” value at GH2 [2] is listed as “The structure of GH2 in complex with the inhibitor galactoisofagomine (GIF)”.
As to `O=[N+]([O-])c1ccc(O[C@@H]2O[C@H](CO)[C@H](O)[C@H](O)[C@H]2O)cc1` [pNP-β-Gal, pNP-β-D-galactopyranoside], the “chromogenic activity assay (data not shown)” value on GH2 [3] was “GH2 was active on pNP-β-D-galactopyranoside (pNP-β-Gal; not shown)”.
Take `O=S(=O)(O)OC[C@H]1O[C@H](O[C@H]2[C@@H](O)[C@@H](CO)O[C@@H](O[C@@H]3[C@H](O)[C@@H](OS(=O)(=O)O)[C@@H](O[C@H]4[C@@H](O)[C@@H](CO)OC(O)[C@@H]4OS(=O)(=O)O)O[C@@H]3COS(=O)(=O)O)[C@@H]2OS(=O)(=O)O)[C@H](O)[C@@H](O)[C@H]1O` (stereo partly drawn) [λ-NC4 pre-treated with S1_8B]: the “X-ray crystal structure, soaked” value at GH110A [4] is given as “determining its structure in complex with λ−NC4 that was pre-treated with S1_8B”.
`O=S(=O)(O)OC[C@H]1O[C@H](O[C@H]2[C@@H](O)[C@@H](CO)O[C@@H](O[C@@H]3[C@H](O)[C@@H](OS(=O)(=O)O)[C@@H](O[C@H]4[C@@H](O)[C@@H](CO)OC(O)[C@@H]4OS(=O)(=O)O)O[C@@H]3COS(=O)(=O)O)[C@@H]2OS(=O)(=O)O)[C@H](OS(=O)(=O)O)[C@@H](O)[C@H]1O` (stereo partly drawn) [λ-NC4, λ-neocarratetraose]: the “preparative desulfation, product seen in crystal complexes” value at S1_8B [5] is on record as “pretreated with S1_8B to convert the non-reducing end residue to G6S”. For the same molecule, the “X-ray crystal structure, soaked” value at S1_8B [6] was “We were able to model both tetrasaccharides as fully sulfated λ−NC4 (i.e., Hex4S6)”.
